Experimental findings from US20230019491A1, “PYRIMIDINE TBK/IKKe INHIBITOR COMPOUNDS AND USES THEREOF” (Merck Patent GmbH, priority 2017, published 2023) are described below.

One assay concerns the target T1, TBK1 (Homo sapiens, UniProt Q9UHD2).
T1 sequence (Q9UHD2 1-729): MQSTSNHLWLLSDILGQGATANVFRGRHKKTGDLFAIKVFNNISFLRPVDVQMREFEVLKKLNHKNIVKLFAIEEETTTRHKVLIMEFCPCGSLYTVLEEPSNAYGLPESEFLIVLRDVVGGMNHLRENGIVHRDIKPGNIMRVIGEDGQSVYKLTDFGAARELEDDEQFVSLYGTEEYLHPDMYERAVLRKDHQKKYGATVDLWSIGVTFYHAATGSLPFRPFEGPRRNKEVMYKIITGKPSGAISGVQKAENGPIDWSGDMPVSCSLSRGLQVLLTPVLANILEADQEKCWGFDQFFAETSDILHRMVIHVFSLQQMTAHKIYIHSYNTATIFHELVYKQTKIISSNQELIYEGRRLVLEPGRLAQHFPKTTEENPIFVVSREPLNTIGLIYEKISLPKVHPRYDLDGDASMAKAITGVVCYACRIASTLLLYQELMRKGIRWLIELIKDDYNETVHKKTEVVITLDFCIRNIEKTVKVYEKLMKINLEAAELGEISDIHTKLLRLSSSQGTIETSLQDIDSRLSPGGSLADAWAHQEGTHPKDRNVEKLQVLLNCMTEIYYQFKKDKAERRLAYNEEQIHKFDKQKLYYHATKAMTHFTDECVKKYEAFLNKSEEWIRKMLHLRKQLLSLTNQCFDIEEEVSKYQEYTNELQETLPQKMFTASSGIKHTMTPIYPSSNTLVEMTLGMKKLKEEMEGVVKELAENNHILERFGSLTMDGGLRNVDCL
Kind of assay: TBK biochemical assay. The conditions noted are these: 10 point 1:4 dose response, 30 uM top concentration, 90 min at 25° C., LabChip EZ Reader II; read-out: TBK1_IC50. The gist of the method:
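Read-out was a Caliper LabChip mobility-shift assay, run after a 90-min, 25 °C reaction of TBK1 with substrate and compounds, quenched with stop buffer. Control wells received staurosporine at 10 uM final.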

Another assay has as its target T2, IKKε (Homo sapiens, UniProt Q14164).
T2 sequence (Q14164 1-716): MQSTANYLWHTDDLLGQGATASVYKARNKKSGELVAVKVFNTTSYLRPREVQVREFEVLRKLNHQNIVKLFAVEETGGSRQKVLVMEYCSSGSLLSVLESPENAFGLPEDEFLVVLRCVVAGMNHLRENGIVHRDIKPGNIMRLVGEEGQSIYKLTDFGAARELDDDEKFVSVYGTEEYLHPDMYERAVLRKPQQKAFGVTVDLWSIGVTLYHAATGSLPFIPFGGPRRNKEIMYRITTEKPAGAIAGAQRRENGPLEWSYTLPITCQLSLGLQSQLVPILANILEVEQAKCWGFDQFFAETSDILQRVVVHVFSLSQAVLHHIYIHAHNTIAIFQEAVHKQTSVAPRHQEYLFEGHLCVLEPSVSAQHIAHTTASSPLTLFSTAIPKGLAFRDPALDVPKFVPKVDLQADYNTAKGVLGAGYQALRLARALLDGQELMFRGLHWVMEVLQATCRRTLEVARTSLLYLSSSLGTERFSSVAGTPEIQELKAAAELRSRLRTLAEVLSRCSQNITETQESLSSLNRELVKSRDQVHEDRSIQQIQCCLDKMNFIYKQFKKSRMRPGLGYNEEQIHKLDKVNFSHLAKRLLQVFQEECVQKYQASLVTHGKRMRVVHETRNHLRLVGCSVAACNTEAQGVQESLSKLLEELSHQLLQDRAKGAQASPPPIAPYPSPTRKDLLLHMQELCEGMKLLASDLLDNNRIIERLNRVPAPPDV
Kind of assay: IKKε biochemical assay. The conditions noted are these: 10 point 1:4 dose response, 30 uM top concentration, 90 min at 25° C., LabChip EZ Reader II; read-out: IKKε_IC50. A digest of the protocol:
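Mobility-shift LabChip read-out followed a 90 min, 25° C. reaction of IKKε with substrate and test compound, with DMSO held at 1% final. Reactions were ended with stop buffer. Wells with 10 uM final staurosporine defined complete inhibition, and DMSO-only wells the uninhibited level.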

Structures can show the parent of a compound that is named as a salt.

Regarding `COc1nc(Nc2nccc(-c3ccc(OC4CCOCC4)c(C#N)n3)n2)ccc1C(=O)N(C)C` [Example 26, 6-([4-[6-cyano-5-(oxan-4-yloxy)pyridin-2-yl]pyrimidin-2-yl]amino)-2-methoxy-N,N-dimethylpyridine-3-carboxamide], the IC50 at TBK1 and at IKKε was less than 100 nM each time.

With `COc1nc(Nc2nccc(-c3ccc(N4CCC5(CC4)CN(C(=O)[C@H](C)O)C5)c(C#N)c3)n2)ccc1N1CCN(C2COC2)CC1` [Example 316, 2-[2-((S)-2-Hydroxy-propionyl)-2,7-diaza-spiro[3.5]non-7-yl]-5-{2-[6-methoxy-5-(4-oxetan-3-yl-piperazin-1-yl)-pyridin-2-ylamino]-pyrimidin-4-yl}-benzonitrile], the IC50 on TBK1 and on IKKε was less than 100 nM in each case.

As to `COc1cc(Nc2nccc(-c3ccc(OC4CCN(C(=O)[C@@H](C)O)CC4)c(C#N)c3)n2)cnc1N1CCN(C2COC2)CC1` [Example 321, 2-([1-[(2R)-2-hydroxypropanoyl]piperidin-4-yl]oxy)-5-[2-([5-methoxy-6-[4-(oxetan-3-yl)piperazin-1-yl]pyridin-3-yl]amino)pyrimidin-4-yl]benzonitrile], the IC50 on TBK1 and at IKKε was less than 100 nM each time.

Turning to `COc1nc(Nc2nccc(-c3ccc(OC4CCOCC4)c(C#N)c3)n2)ccc1N1C[C@@H](C)O[C@@H](C)C1` [Example 37, 5-[2-([5-[cis-2,6-dimethylmorpholin-4-yl]-6-methoxypyridin-2-yl]amino)pyrimidin-4-yl]-2-(oxan-4-yloxy)benzonitrile], the IC50 on TBK1 and on IKKε was less than 100 nM in each case.

With `COc1nc(Nc2nccc(-c3ccc(OC4CCOCC4)c(C#N)c3)n2)ccc1C(=O)N1CC2CCC(C1)O2` [Example 10, 5-(2-[[6-methoxy-5-([8-oxa-3-azabicyclo[3.2.1]octan-3-yl]carbonyl)pyridin-2-yl]amino]pyrimidin-4-yl)-2-(oxan-4-yloxy)benzonitrile], the IC50 at TBK1 and on IKKε was less than 100 nM each time.

Turning to `COc1nc(Nc2nccc(-c3ccc(OC4CCOCC4)c(C#N)c3)n2)ccc1N1CCN(CCO)CC1` [Example 167, 5-[2-([5-[4-(2-hydroxyethyl)piperazin-1-yl]-6-methoxypyridin-2-yl]amino)pyrimidin-4-yl]-2-(oxan-4-yloxy)benzonitrile], the IC50 at TBK1 and on IKKε was less than 100 nM throughout.

Take `COc1cc(Nc2nccc(-c3ccc(OC4CCOCC4)c(C#N)c3)n2)ncc1N1CCN(C)CC1` [Example 53, 5-(2-[[4-methoxy-5-(4-methylpiperazin-1-yl)pyridin-2-yl]amino]pyrimidin-4-yl)-2-(oxan-4-yloxy)benzonitrile hydrochloride]: the IC50 on TBK1 and on IKKε was 100 to 1000 nM each time.

In the case of `COc1nc(Nc2nccc(-c3ccc(OC4CCOCC4)c(C#N)c3)n2)ccc1C(=O)N1CCC(C(=O)O)CC1` [Example 13], the IC50 at TBK1 and at IKKε was less than 100 nM throughout.

On to `COc1nc(Nc2nccc(-c3ccc(OC4CN(C)C4)c(C#N)c3)n2)ccc1N1CCN(C)CC1` [Example 86, 5-(2-[[6-methoxy-5-(4-methylpiperazin-1-yl)pyridin-2-yl]amino]pyrimidin-4-yl)-2-[(1-methylazetidin-3-yl)oxy]benzonitrile], for which the IC50 at TBK1 and on IKKε was 100 to 1000 nM in each case.

With `COc1nc(Nc2nccc(-c3ccc(OC4CCOCC4)c(C#N)n3)n2)ccc1C(=O)N1CCN(C)CC1` [Example 31, 6-[2-([6-methoxy-5-[(4-methylpiperazin-1-yl)carbonyl]pyridin-2-yl]amino)pyrimidin-4-yl]-3-(oxan-4-yloxy)pyridine-2-carbonitrile], the IC50 at TBK1 and on IKKε was less than 100 nM throughout.

For the compound `COc1nc(Nc2nccc(-c3ccc(OC4CCN(C)CC4)c(C#N)c3)n2)ccc1C(=O)N(C)C` [Example 71, 6-[(4-[3-cyano-4-[(1-methylpiperidin-4-yl)oxy]phenyl]pyrimidin-2-yl)amino]-2-methoxy-N,N-dimethylpyridine-3-carboxamide hydrochloride], the IC50 at TBK1 and on IKKε was 100 to 1000 nM in each case.

On to `COc1nc(Nc2nccc(-c3ccc(OC4CCN(C(=O)[C@@H](C)O)CC4(F)F)c(C#N)c3)n2)ccc1N1CCN(C)CC1` (stereo partly drawn) [Example 104, 2-[3,3-Difluoro-1-((R)-2-hydroxy-propionyl)-piperidin-4-yloxy]-5-{2-[6-methoxy-5-(4-methyl-piperazin-1-yl)-pyridin-2-ylamino]-pyrimidin-4-yl}-benzonitrile], for which the IC50 at TBK1 and on IKKε was less than 100 nM each time.

Consider `C[C@H](O)C(=O)N1CCC(Oc2ccc(-c3nc(Nc4ccc(C5CCN(C6COC6)CC5)cc4)ncc3F)cc2C#N)C(F)(F)C1` (stereo partly drawn) [Example 301, 2-({3,3-difluoro-1-[(2S)-2-hydroxypropanoyl]piperidin-4-yl}oxy)-5-[5-fluoro-2-({4-[1-(oxetan-3-yl)piperidin-4-yl]phenyl}amino)pyrimidin-4-yl]benzonitrile], for which the IC50 on TBK1 and on IKKε was less than 100 nM in each case.

Regarding `COc1nc(Nc2nccc(-c3ccc(OC4CCN(C(=O)[C@@H](C)O)CC4(F)F)c(C#N)c3)n2)ccc1C1CCN(C)CC1` (stereo partly drawn) [Example 147, 2-([3,3-difluoro-1-[(2R)-2-hydroxypropanoyl]piperidin-4-yl]oxy)-5-(2-[[6-methoxy-5-(1-methylpiperidin-4-yl)pyridin-2-yl]amino]pyrimidin-4-yl)benzonitrile], the IC50 at TBK1 and at IKKε was less than 100 nM each time.

On to `COc1nc(Nc2nccc(-c3ccc(OC4CCOCC4F)c(C#N)c3)n2)ccc1N1CCN(C2COC2)CC1` (centres unmarked) [Example 170, 2-(3-Fluoro-tetrahydro-pyran-4-yloxy)-5-{2-[6-methoxy-5-(4-oxetan-3-yl-piperazin-1-yl)-pyridin-2-ylamino]-pyrimidin-4-yl}-benzonitrile], for which the IC50 on TBK1 and at IKKε was less than 100 nM throughout.

For the compound `COc1nc(Nc2nccc(-c3ccc(OC4CCOCC4)c(C#N)c3)n2)ccc1N1CCN(C(C)=O)CC1` [Example 168, 5-(2-[[5-(4-acetylpiperazin-1-yl)-6-methoxypyridin-2-yl]amino]pyrimidin-4-yl)-2-(oxan-4-yloxy)benzonitrile], the IC50 on TBK1 and on IKKε was less than 100 nM each time.

In the case of `CN(C)C(=O)c1ccc(Nc2nccc(-c3ccc(OC4CCOCC4)c(C#N)c3)n2)nc1` [Example 22, 6-([4-[3-cyano-4-(oxan-4-yloxy)phenyl]pyrimidin-2-yl]amino)-N,N-dimethylpyridine-3-carboxamide], the IC50 at TBK1 and on IKKε was 100 to 1000 nM in each case.

On to `COc1ccc(Nc2nccc(-c3ccc(OC4CCN(C(=O)[C@@H](O)CO)CC4(F)F)c(C#N)c3)n2)nc1OC` (stereo partly drawn) [Example 244, 2-[1-((S)-2,3-Dihydroxy-propionyl)-3,3-difluoro-piperidin-4-yloxy]-5-[2-(5,6-dimethoxy-pyridin-2-ylamino)-pyrimidin-4-yl]-benzonitrile], for which the IC50 at TBK1 and at IKKε was less than 100 nM each time.

As to `COc1nc(Nc2nccc(-c3ccc(OC4CCNCC4(F)F)c(C#N)c3)n2)ccc1N1CCN(C2COC2)C[C@H]1C` (stereo partly drawn) [Example 129, 2-(3,3-Difluoro-piperidin-4-yloxy)-5-{2-[6-methoxy-5-((R)-2-methyl-4-oxetan-3-yl-piperazin-1-yl)-pyridin-2-ylamino]-pyrimidin-4-yl}-benzonitrile], the IC50 at TBK1 and at IKKε was less than 100 nM throughout.
